Type in all cases: cell-based
In one assay the test system is E. coli ΔTolC. In words: microbe, parasite or virus in culture. Particulars: Escherichia coli, E. coli HAV#038; ΔTolC. An outline of the steps:
(§1)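 Inoculum for broth microdilution was 5×10^5 CFU/mL final, prepared from overnight 35° C blood-agar subcultures (separate handling for streptococcal and anaerobic strains); MICs read by CLSI broth microdilution or agar dilution.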

Another assay deals with S. aureus MP-549 msrA. In words: microbe, parasite or virus in culture. In short, it runs like this:
as §1

A further assay has as its system B. fragilis ATCC 25285. Kind of assay: MIC (broth microdilution or agar dilution, CLSI). In short, it runs like this:
(§2)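 Triplicate CLSI determinations by broth or agar dilution, compound at 128-0.06 μg/mL in 2.5% DMSO; special handling for anaerobes. Broth microdilution used 5×10^5 CFU/mL inocula in cation-adjusted Mueller-Hinton broth.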
On the technique in general: In broth dilution the organism is exposed to a series of concentrations in liquid medium.

The subject of the next assay is C. difficile ATCC 700057. Kind of assay: MIC (broth microdilution or agar dilution, CLSI). An outline of the steps: as §2
A further assay concerns E. coli ATCC 25922. In words: MIC (broth microdilution or agar dilution, CLSI). In short, it runs like this: as §1
In the next assay the test system is E. coli LptD. In words: MIC (broth microdilution or agar dilution, CLSI). The note with it: Escherichia coli, E. coli HAV#040; LptD; read-out: MIC. In short, it runs like this: as §1
For the next assay, the system named is E. faecalis ATCC 29212. Kind of assay: MIC (broth microdilution or agar dilution, CLSI). In short, it runs like this:
as §1

A further assay deals with H. influenzae ATCC 49247. Kind of assay: MIC (broth microdilution or agar dilution, CLSI). In short, it runs like this:
as §1

In another assay the test system is K. pneumoniae ATCC 10031. In words: MIC (broth microdilution or agar dilution, CLSI). In short, it runs like this: as §1
In another assay the test system is S. aureus ATCC 29213. Kind of assay: MIC (broth microdilution or agar dilution, CLSI). In short, it runs like this: as §1
For the next assay, the system named is S. pneumoniae ATCC 49619. In words: MIC (broth microdilution or agar dilution, CLSI). In short, it runs like this: as §1
Another assay deals with S. pyogenes ATCC 19615. In words: MIC (broth microdilution or agar dilution, CLSI). An outline of the steps:
as §1

A further assay has as its system S. aureus BAA 977 iErmA. In words: microbe, parasite or virus in culture. The note with it: S. aureus BAA 977 iErmA. In short, it runs like this:
as §1

Another assay relates to C. scindens ATCC 35704. In words: MIC (broth microdilution or agar dilution, CLSI). Particulars: C. scindens ATCC 35704. In short, it runs like this:
as §2

For assay [1], the system named is E. coli MP-74 LptD mutant. Kind of assay: MIC (broth microdilution or agar dilution, CLSI). Particulars: E. coli MP-74 LptD mutant. In short, it runs like this: as §2
For a further assay, the system named is E. coli MP-9 ΔTolC. Kind of assay: MIC (broth microdilution or agar dilution, CLSI). Particulars: E. coli MP-9 ΔTolC. An outline of the steps:
as §1

The test system of assay [2] is E. faecalis MMX 847; cErmB. Kind of assay: MIC (broth microdilution or agar dilution, CLSI). Particulars: E. faecalis MMX 847; cErmB. In short, it runs like this: as §1
The test system of the next assay is S. aureus MMX 3035 cErmA. In words: MIC (broth microdilution or agar dilution, CLSI). Particulars: S. aureus MMX 3035 cErmA. An outline of the steps:
as §1

The subject of assay [3] is S. pneumoniae MMX 3028 cErmB. In words: MIC (broth microdilution or agar dilution, CLSI). Particulars: S. pneumoniae MMX 3028 cErmB. An outline of the steps: as §1
Assay [4] concerns S. pneumoniae MMX 3031 cMefA. Kind of assay: MIC (broth microdilution or agar dilution, CLSI). Particulars: S. pneumoniae MMX 3031 cMefA. An outline of the steps:
as §1

In assay [5] the test system is S. pyogenes MMX 946; cErmB. In words: MIC (broth microdilution or agar dilution, CLSI). Particulars: S. pyogenes MMX 946; cErmB. In short, it runs like this:
as §1

Each structure is given as a SMILES string. Values after ≈ are worked out from the molar mass of the structure shown. Where two headings read alike, the source gives them in different places.

For the compound `CCN1CCN(c2cc3c(cc2F)c(=O)c(C(=O)O)cn3C2CC2)CC1` [Enrofloxacin], the MIC against E. coli ΔTolC is at most 0.06 µg/mL; in the assay on S. aureus MP-549 msrA (Staphylococcus aureus, MP549MSRA, S. aureus HAV#032, MP-549, MSR(A), read-out: MIC) it was 0.5 µg/mL (≈ 1.39 µM); in the assay with B. fragilis ATCC 25285 (Bacteroides fragilis, ATCC25285, B. fragilis HAV#013, ATCC 25285, read-out: MIC), 2 µg/mL (≈ 5.56 µM); with C. difficile ATCC 700057 (Clostridioides difficile, ATCC700057, C. difficile HAV#011, ATCC 700057, read-out: MIC) it was 32 µg/mL (≈ 89 µM); in the assay with E. coli ATCC 25922 (Escherichia coli, ATCC25922, E. coli HAV#006, ATCC 25922, read-out: MIC), at most 0.06 µg/mL; with E. coli LptD it was at most 0.06 µg/mL. Also, the MIC was 0.5 µg/mL (≈ 1.39 µM) in the assay on E. faecalis ATCC 29212 (Enterococcus faecalis, ATCC29212, E. faecalis HAV#005, ATCC 29212, read-out: MIC); at most 0.06 µg/mL with H. influenzae ATCC 49247 (Haemophilus influenzae, ATCC49247, H. influenzae HAV#007, ATCC 49247, read-out: MIC); at most 0.06 µg/mL in the assay with K. pneumoniae ATCC 10031 (Klebsiella pneumoniae, ATCC10031, K. pneumoniae HAV#008, ATCC 10031, read-out: MIC); 0.125 µg/mL (≈ 0.348 µM) in the assay on S. aureus ATCC 29213 (Staphylococcus aureus, ATCC29213, S. aureus HAV#001, ATCC 29213, MP-549, read-out: MIC); 0.25 µg/mL (≈ 0.696 µM) with S. pneumoniae ATCC 49619 (Streptococcus pneumoniae, ATCC49619, S. pneumoniae HAV#003, ATCC 49619, read-out: MIC); 0.25 µg/mL (≈ 0.696 µM) with S. pyogenes ATCC 19615 (Streptococcus pyogenes, ATCC19615, S. pyogenes HAV#004, ATCC 19615, read-out: MIC).
Regarding `CSC1O[C@H]([C@H](NC(=O)[C@H]2NC[C@@H]3C[C@@H](C(C)C)CCO[C@H]32)[C@H](C)Cl)C(O)[C@@H](O)[C@H]1O` (stereo partly shown) [FSA-512078a], the MIC in the assay on S. aureus BAA 977 iErmA amounted to 0.06 µg/mL (≈ 0.125 µM); in the assay with S. aureus MP-549 msrA (S. aureus MP-549 msrA), 0.06 µg/mL (≈ 0.125 µM); against B. fragilis ATCC 25285 (B. fragilis ATCC 25285), 1 µg/mL (≈ 2.08 µM); with C. difficile ATCC 700057 (C. difficile ATCC 700057) it was 1 µg/mL (≈ 2.08 µM); in the assay on C. scindens ATCC 35704, 0.25 µg/mL (≈ 0.52 µM); in [1], 4 µg/mL (≈ 8.32 µM). Moreover, the MIC was 32 µg/mL (≈ 66.5 µM) against E. coli ATCC 25922 (E. coli ATCC 25922); 2 µg/mL (≈ 4.16 µM) against E. coli MP-9 ΔTolC; 0.25 µg/mL (≈ 0.52 µM) against E. faecalis ATCC 29212 (E. faecalis ATCC 29212); 32 µg/mL (≈ 66.5 µM) in assay [2]; 8 µg/mL (≈ 16.6 µM) in the assay with H. influenzae ATCC 49247 (H. influenzae ATCC 49247); 1 µg/mL (≈ 2.08 µM) against K. pneumoniae ATCC 10031 (K. pneumoniae ATCC 10031). For the same compound, the MIC with S. aureus ATCC 29213 (S. aureus ATCC 29213) turned out to be 0.06 µg/mL (≈ 0.125 µM); in the assay with S. aureus MMX 3035 cErmA, 32 µg/mL (≈ 66.5 µM); in the assay on S. pneumoniae ATCC 49619 (S. pneumoniae ATCC 49619), 0.03 µg/mL (≈ 0.0624 µM); in assay [3], 8 µg/mL (≈ 16.6 µM); in [4], 0.03 µg/mL (≈ 0.0624 µM); in the assay on S. pyogenes ATCC 19615 (S. pyogenes ATCC 19615) it was 0.02 µg/mL (≈ 0.0416 µM). For the same compound, in assay [5], the MIC was 8 µg/mL (≈ 16.6 µM).
On to `CSC1O[C@H]([C@H](NC(=O)[C@H]2NC[C@@H]3C[C@H](C(C)C)CCO[C@H]32)[C@H](C)Cl)C(O)[C@@H](O)[C@H]1O` (stereo partly shown) [FSA-512078b], for which the MIC turned out to be 0.25 µg/mL (≈ 0.52 µM) in the assay with S. aureus MP-549 msrA (S. aureus MP-549 msrA); 16 µg/mL (≈ 33.3 µM) in [1]; 128 µg/mL (≈ 266 µM) against E. coli ATCC 25922 (E. coli ATCC 25922); 4 µg/mL (≈ 8.32 µM) in the assay with E. coli MP-9 ΔTolC; 0.5 µg/mL (≈ 1.04 µM) against E. faecalis ATCC 29212 (E. faecalis ATCC 29212); 32 µg/mL (≈ 66.5 µM) against H. influenzae ATCC 49247 (H. influenzae ATCC 49247). Moreover, the MIC against K. pneumoniae ATCC 10031 (K. pneumoniae ATCC 10031) is 4 µg/mL (≈ 8.32 µM); with S. aureus ATCC 29213 (S. aureus ATCC 29213), 0.5 µg/mL (≈ 1.04 µM); against S. pyogenes ATCC 19615 (S. pyogenes ATCC 19615), at most 0.12 µg/mL.

Source of the values: patent US20230203081A1, “LINCOSAMIDE ANTIBIOTICS AND USES THEREOF” (President and Fellows of Harvard College, priority 2020, published 2023).
